From ChEMBL document CHEMBL1909046, “DrugMatrix in vitro pharmacology data”

Columns and labels:
[1] = biological target: T1, Receptor-type tyrosine-protein phosphatase C (Homo sapiens, UniProt P08575); set-up: species or system Escherichia coli;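 also: inhibition of CD45 enzyme activity measured using DiFMUP as substrate; in other assays of this panel Not Active means under 50% inhibition at 10 µM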
T1 sequence (P08575 whole entry): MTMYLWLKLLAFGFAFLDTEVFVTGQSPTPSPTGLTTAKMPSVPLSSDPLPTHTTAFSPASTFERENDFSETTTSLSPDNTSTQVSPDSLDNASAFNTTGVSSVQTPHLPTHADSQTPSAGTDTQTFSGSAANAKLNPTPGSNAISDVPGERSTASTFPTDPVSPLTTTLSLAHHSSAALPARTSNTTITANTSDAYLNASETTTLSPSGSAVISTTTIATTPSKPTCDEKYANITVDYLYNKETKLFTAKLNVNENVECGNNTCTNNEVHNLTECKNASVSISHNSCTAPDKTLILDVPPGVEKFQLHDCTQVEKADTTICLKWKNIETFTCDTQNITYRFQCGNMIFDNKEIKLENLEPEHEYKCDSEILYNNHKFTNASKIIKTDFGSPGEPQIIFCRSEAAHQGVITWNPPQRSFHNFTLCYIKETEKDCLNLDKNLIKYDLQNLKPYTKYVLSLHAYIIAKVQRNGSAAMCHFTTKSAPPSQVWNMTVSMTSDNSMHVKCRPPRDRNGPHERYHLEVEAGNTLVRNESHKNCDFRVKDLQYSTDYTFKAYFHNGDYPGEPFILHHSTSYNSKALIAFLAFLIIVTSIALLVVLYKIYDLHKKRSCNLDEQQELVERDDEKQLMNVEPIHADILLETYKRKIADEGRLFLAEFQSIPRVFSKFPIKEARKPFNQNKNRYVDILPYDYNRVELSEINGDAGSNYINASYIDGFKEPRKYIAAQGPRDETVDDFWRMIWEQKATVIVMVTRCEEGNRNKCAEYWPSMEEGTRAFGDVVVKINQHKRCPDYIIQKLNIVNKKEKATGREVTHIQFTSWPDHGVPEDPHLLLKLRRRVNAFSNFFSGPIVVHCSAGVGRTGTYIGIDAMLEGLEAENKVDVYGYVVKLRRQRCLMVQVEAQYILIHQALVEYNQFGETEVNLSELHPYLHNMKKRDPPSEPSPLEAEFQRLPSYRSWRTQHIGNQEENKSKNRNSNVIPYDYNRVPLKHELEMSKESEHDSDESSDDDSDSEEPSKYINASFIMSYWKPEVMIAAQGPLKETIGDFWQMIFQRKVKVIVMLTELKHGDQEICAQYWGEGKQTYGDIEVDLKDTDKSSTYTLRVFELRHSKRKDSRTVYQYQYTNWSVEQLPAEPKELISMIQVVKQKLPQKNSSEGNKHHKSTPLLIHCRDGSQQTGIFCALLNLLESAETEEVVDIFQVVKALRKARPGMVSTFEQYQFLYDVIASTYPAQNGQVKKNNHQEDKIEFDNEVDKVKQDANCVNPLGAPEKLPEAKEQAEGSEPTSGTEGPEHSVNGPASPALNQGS

[2] = DRUGMATRIX: ATPase, Na+/K+ enzyme inhibition (substrate: ATP); assay type: tissue-based, Sus scrofa, Heart; conditions: Not Active = under 50% inhibition at 10 µM
[3] = biological target: T2, Muscarinic acetylcholine receptor M2 (Homo sapiens, UniProt P08172); assay type: cell membranes, CHO-K1, Membrane; conditions: cho-k1; also: in other assays of this panel Not Active means under 50% inhibition at 10 µM
T2 sequence (P08172 whole entry): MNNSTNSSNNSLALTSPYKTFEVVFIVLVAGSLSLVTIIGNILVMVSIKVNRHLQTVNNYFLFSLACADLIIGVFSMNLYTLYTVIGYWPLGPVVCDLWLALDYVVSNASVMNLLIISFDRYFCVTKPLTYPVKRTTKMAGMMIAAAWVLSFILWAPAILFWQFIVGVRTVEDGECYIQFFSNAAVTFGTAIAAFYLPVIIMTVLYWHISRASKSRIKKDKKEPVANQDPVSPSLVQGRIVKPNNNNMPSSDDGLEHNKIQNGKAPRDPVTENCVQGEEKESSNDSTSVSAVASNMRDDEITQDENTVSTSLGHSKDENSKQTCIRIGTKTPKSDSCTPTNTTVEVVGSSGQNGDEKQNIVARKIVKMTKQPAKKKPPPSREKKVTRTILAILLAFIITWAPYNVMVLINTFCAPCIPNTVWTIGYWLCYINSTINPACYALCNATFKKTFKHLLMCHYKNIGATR

Estrogen receptor = biological target: T3, Estrogen receptor (Homo sapiens, UniProt P03372); conditions: sf9; also: in other assays of this panel Not Active means under 50% inhibition at 10 µM
T3 sequence (P03372 whole entry): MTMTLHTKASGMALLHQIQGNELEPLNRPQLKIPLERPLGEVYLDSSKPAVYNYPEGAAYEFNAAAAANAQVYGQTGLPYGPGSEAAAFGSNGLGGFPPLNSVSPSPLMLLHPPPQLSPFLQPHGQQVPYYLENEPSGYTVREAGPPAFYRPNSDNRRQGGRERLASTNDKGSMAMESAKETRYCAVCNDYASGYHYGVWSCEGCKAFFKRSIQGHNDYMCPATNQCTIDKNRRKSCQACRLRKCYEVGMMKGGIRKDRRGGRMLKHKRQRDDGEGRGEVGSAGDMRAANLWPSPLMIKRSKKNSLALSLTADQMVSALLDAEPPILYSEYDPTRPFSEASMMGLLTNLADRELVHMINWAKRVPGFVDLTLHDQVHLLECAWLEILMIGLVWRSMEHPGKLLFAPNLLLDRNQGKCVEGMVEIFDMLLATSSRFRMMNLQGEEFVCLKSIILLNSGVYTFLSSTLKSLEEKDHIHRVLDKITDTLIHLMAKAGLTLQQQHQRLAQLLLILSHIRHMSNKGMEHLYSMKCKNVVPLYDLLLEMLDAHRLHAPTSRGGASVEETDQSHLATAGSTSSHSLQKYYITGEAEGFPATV

Substance-K receptor = biological target: T4, Substance-K receptor (Homo sapiens, UniProt P21452); assay type: cell membranes, CHO, Membrane; conditions: cho; also: in other assays of this panel Not Active means under 50% inhibition at 10 µM
T4 sequence (P21452 whole entry): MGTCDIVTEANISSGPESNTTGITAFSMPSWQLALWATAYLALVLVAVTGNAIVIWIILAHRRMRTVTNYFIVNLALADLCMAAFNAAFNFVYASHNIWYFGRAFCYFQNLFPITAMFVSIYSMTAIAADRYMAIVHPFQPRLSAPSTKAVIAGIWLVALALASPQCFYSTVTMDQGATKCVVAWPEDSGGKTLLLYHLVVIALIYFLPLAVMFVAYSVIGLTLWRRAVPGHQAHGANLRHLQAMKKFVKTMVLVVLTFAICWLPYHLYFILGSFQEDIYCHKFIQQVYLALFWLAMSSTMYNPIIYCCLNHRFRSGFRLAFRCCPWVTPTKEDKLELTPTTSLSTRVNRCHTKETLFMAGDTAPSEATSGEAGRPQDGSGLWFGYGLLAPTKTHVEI

[4] = DRUGMATRIX: Calcium Channel Type L, Dihydropyridine radioligand binding (ligand: [3H] Nitrendipine); assay type: cell membranes, Rattus norvegicus, Wistar, Cerebral cortex, Membrane; conditions: Not Active = under 50% inhibition at 10 µM

NYSTATIN
Not Active: IC50 [1] | Ki [1] | IC50 [2] | Ki [2] | IC50 [3] | Ki [3] | IC50 (Estrogen receptor) | Ki (Estrogen receptor) | IC50 (Substance-K receptor) | Ki (Substance-K receptor) | IC50 [4] | Ki [4]
